Data taken from patent US20040096815A1, “Method of identifying an eventual modification of at least one biological parameter making use of living cells which are subjected to a stress and living cells which are not subjected to this same stress” (COLETICA, priority 2002, published 2004).
Where two headings read alike, the source gives them in different places.

How the values were obtained:
[1] = test system: reconstructed gingival mucous membrane epithelia; experiment: mRNA Expression Array on reconstructed gingival mucous membrane epithelia treated with irritant/sensitizing agents or actives; type: cell-based; conditions: (treated/non-stressed)x100; 20 μl per epithelium 1 h, then 24 h; SLS 5%, LPS 1000 U/ml, Prednisolone 10 mM, Inhipase 3%
Excerpt: 1 to 2.10^6 epithelial cells of gingival mucous membrane called <<reference gingival mucous membrane epithelia cells>> (gingival biopsy, Passage 3 (3rd amplification by trypsination)), extracted as described in Example 1, are sown in Boyden chamber-type inserts (membrane of porosity 0.4 μm and diameter 10 mm—fibroblast nutrient under layer), in a DMEM-Glutamax/Ham F-12 (ratio 3/1 v/v) culture medium supplemented with 10% of Hyclone II calf serum, with ascorbic acid-2-phosphate at a final concentration of 1 millimolar, with EGF at a final concentration of 10 ng/mL, with hydrocortisone at a final concentration of 0.4 micrograms/milliliter, with umulin at a final concentration of 0.12 IU/milliliter, with isuprel at a final concentration of 0.4 micrograms/milliliter, with triiodothyronine at a final concentration of 2.10^−9 molar, with adenine at a final concentration of 24.3 micrograms/milliliter, with penicillin at a final concentration of 100 IU/milliliter, with amphotericin B at a final concentration of 1 microgram/milliliter, and with gentamycin at a final concentration of 20 micrograms/milliliter, and for a period of culture by immersion of 3 to 8 days.
The cultures of epithelial cells are then maintained in immersion for 12 to 18 days in the same culture medium as that used for the immersion culture, except the percentage of calf serum which is lowered by 10% to 1%.
At the end of experimentation, the medium is eliminated and replaced with PBS pH 7.4, and the reconstructed epithelia Which are present in the inserts are stressed by various potentially irritant or sensitizing agents, at the rate of 20 μl per epithelium and for one hour: 5% sodium lauryl sulfate (SLS), Lipopolysaccharide (LPS) 1000 U/ml, an anti-inflammatory agent Prednisolone 10 mM (Sigma) and an active Inhipase® 3% (extract of the root of pueraria lobata, Coletica) also at the rate of 20 μl per epithelium, for 1 hour. The agents applied on the reconstructed epithelia are then eliminated and then the reconstructed epithelia are incubated for 24 additional hours in immersion medium without calf serum. Certain reconstructed epithelia are analyzed in terms of cell viability by a test with MTT (methylthiazoletetrazolium). Other reconstructed epithelia are scraped off and taken up into Tri Reagent® (T9424 Sigma, St Louis USA) and then extracted with chloroform. After centrifugation at 12,000 g for 15 minutes at 4° C., the RNAs are found in the upper layer.
The determination of the mRNAs of the epithelia is made by Expression Array (R&D System), according to the protocol defined by the supplier.

[2] = test system: pigmented reconstructed skins; experiment: Interleukin secretion (Fluorokine MAP) of pigmented reconstructed skins under repeated solar irradiation with anti-oxidant actives; type: cell-based; conditions: for restoring cell viability and synthesis of pro-inflammatory interleukins after solar irradiation: actives at 3% in a cosmetic formulation; for IL1 beta secretion (Fluorokine MAP) / IL6 secretion (Fluorokine MAP) / IL8 secretion (Fluorokine MAP) / TNF alpha secretion (Fluorokine MAP): solar irradiation 561 KJ/m^2 twice per week for two weeks, 8 μl cosmetic formulation with active at 3%, 10 days
Description: The reconstructed dermis comprising cells called <<stressed cells>> or <<reference cells>> are then incubated in a medium without serum (FBM, Promocell) for 24 hours. The cell viability in the matrices is evaluated by a test with MTT (methylthiazoletetrazolium) and is expressed in percentage of the non-irradiated control. The media are collected, centrifuged, and the cytokines content is determined by the Fluorokine MAP kit (R&D Systems). Briefly, 50 μl of standards or of samples are pipetted into identified wells. 50 μl of microparticles immobilizing specific antibodies of different cytokines are added into the wells as a function of a pre-defined plate plan. After one hour of incubation under orbital agitation, and elimination of the non-fixed substances by washing, labeled antibodies which are specific of different cytokines are added into the wells and are incubated for 2 hours under orbital agitation. After washing, the microparticles are suspended in washing buffer, are agitated for 1 minute under orbital agitation. The reading is carried out immediately on a Luminex 100 Analyser (R&D Systems). The contents of the different cytokines which are present in the media analyzed are determined by virtue of calibration ranges made with highly purified recombinant human cytokines. This technique enables an experimentation to analyze the cellular secretion of various cytokines (IL-1β, IL-2, IL-4, IL-6, IL-8, IL-10, TNFα, GM-CSF, G-CSF, VEGF, bFGF, G-CSF, IFNγ).
The cells extracted are obtained from a mammary biopsy non-exposed to the stress studied. 400,000 fibroblasts, amplified until passage 5 (5th amplification by trypsination) as described in Example 1, are sown on dermal substrates based on surfaced sponges of collagen, in a DMEM-Glutamax culture medium supplemented with 10% of hyclone II calf serum, with ascorbic acid-2-phosphate at a final concentration of 1 millimolar, with EGF or Epidermal growth factor at a final concentration of 10 ng/mL, with penicillin at a final concentration of 100 IU/milliliter, with amphotericin B at a final concentration of 1 microgram/milliliter, and with gentamycin at a final concentration of 20 micrograms/milliliter, and for a period of culture of 14 days.
Then, 400,000 keratinocytes and 10,000 melanocytes, amplified until passage 2 (2nd amplification by trypsination) as described in Example 1, are sown on the dermal equivalents in a DMEM-Glutamax/Ham F-12 (ratio 3/1 v/v) culture medium supplemented with 10% of Hyclone II calf serum, with ascorbic acid-2-phosphate at a final concentration of 1 millimolar, with EGF at a final concentration of 10 ng/mL, with hydrocortisone at a final concentration of 0.4 micrograms/milliliter, with umulin at a final concentration of 0.12 IU/milliliter, with isuprel at a final concentration of 0.4 micrograms/milliliter, with triiodothyronine at a final concentration of 2.10^−9 molar, with adenine at a final concentration of 24.3 micrograms/milliliter, with penicillin at a final concentration of 100 IU/milliliter, with amphotericin B at a final concentration of 1 microgram/milliliter, and with gentamycin at a final concentration of 20 micrograms/milliliter, and for a period of immersion culture of 7 days.
The cultures are then placed at the air-liquid interface for 14 days in the same culture medium as that used for the immersion culture, except the calf serum, the hydrocortisone, the isuprel, the triiodothyronine and the umulin.
Twice per week and for two weeks, the immersion medium is eliminated and replaced by PBS at pH 7.4. Certain pigmented reconstructed skins present in the inserts are preserved at ambient temperature; this model comprises cells which are called “reference cells”. Other pigmented reconstructed skins present in the inserts are irradiated at 561 KJ/m^2 (corresponding to an average hour of exposure in Central Europe) with the aid of a solar irradiator Suntest CPS+ (ATLAS); this model comprises cells which are called “stressed cells”.

[3] = test system: reconstructed skins
Description: Reconstructed skins are made according to the protocol described in Example 6.
The UVB irradiation at the rate of 50 mJ/cm^2 is made for half the samples comprising <> cells. The other samples are preserved at ambient temperature under the same conditions, and constitute samples comprising <> cells.
At the end of experimentation, the content of tropoelastin mRNA, collagen of type I and collagen of type III is evaluated by a real time RT-PCR technique. For this, couples of primers enabling the amplification of specific fragments of tropoelastin, of collagen of type I and of collagen of type III (sense 18/antisense 19 and sense 18/antisense 20, respectively) and actin sequence primers (541 pairs of bases) were used. After extraction in TriReagent® (Sigma) and purification of the RNAs according to the protocol of the supplier, the reactions of RT-PCR (Reverse Polymerase Transcription Chain reactions) are carried out by quantitative real time RT-PCR with the aid of the <<Opticon>> system (MJ Research).
The reaction mixture (50 μl) introduced into the well is the following, for each sample:
10 μl of RNA at the concentration of 5 ng/μl.
The primers of the various labelers used
Reaction mixture (Qiagen-25 μl 2×QuantiTect SYBR Green RT-PCR master mix containing 5 mM MgCl2+0.5 μl QuantiTect RT mix), the labeler SYBR Green I inserting itself in the DNA double strand during elongation step).
Reverse transcription: 30 min at 50° C.,
PCR reactions: [15 sec at 94° C., 30 sec at 60° C. and 30 sec at 72° C.], 50 cycles.
The absence of contamination and the purity of the products amplified are verified by the melting curves of the amplified PCR products. The products having a double peak or an abnormal melting temperature are eliminated.
The incorporation of fluorescence in the amplified DNA was evaluated continuously during the PCR cycles. This system enables obtaining fluorescence measurement curves as a function of the number of PCR cycles and thus to evaluate a relative quantity of amplified DNA.
In order to take account of the:cell population present in the reconstructed skins, all the results were attributed to the signal <>, used as housekeeping gene.
According to the experimentation, the measurement threshold of the C(T) (=cycle threshold) is fixed for T between 0.05 and 0.01 and then an arbitrary unit of measurement is calculated for each gene according to the formula:
Sgene <>=10^7X(½)^C(T)gene <<X>>
C(T)gene <> signifying the measurement threshold of the C(T) (Cycle Threshold) of the gene <>.
The values of the genes of interest are attributed to the signal <> by calculation of the ratio:
These ratios are compared between the treated and non-treated samples.

[4] = UVB 50 mJ/cm^2, then 24 h with active at 1%
[5] = UVB 50 mJ/cm^2, then 24 h with active at 3%

For `CCCCCCCCCCCCOS(=O)(=O)[O-].[Na+]` [SLS, sodium lauryl sulfate], the “IL1α mRNA, factor of variation with respect to the non-stressed control” value [1] was 241, the “IL1β mRNA, factor of variation with respect to the non-stressed control” value [1] was 114 and the “IL6 mRNA, factor of variation with respect to the non-stressed control” value [1] was 163. For the same compound, the “IL7 mRNA, factor of variation with respect to the non-stressed control” value [1] was 127, the “IL8 mRNA, factor of variation with respect to the non-stressed control” value [1] was 183 and the “IL10 mRNA, factor of variation with respect to the non-stressed control” value [1] was 75. The “IL11 mRNA, factor of variation with respect to the non-stressed control” value [1] was 112, the “IL12 mRNA, factor of variation with respect to the non-stressed control” value [1] was 132 and the “IL15 mRNA, factor of variation with respect to the non-stressed control” value [1] was 147. The “IL-1R AcP mRNA, factor of variation with respect to the non-stressed control” value [1] was 102, the “IL-1RI mRNA, factor of variation with respect to the non-stressed control” value [1] was 154 and the “IL-1RII mRNA, factor of variation with respect to the non-stressed control” value [1] was 137. For the same compound, the “IL-1ra mRNA, factor of variation with respect to the non-stressed control” value [1] was 82, the “PLA2 mRNA, factor of variation with respect to the non-stressed control” value [1] was 102 and the “TNFα mRNA, factor of variation with respect to the non-stressed control” value [1] was 213.

With Hesperitine Laurate [Flavagrum ®] the “restoring cell viability and synthesis of pro-inflammatory interleukins after solar irradiation” value [2] was “have shown an effectiveness capable of tending to restoring the reference level for these two parameters”, the “IL1 beta secretion (Fluorokine MAP)” value [2] was 125 pg/mL and the “IL6 secretion (Fluorokine MAP)” value [2] was 452 pg/mL. For the same compound, the “IL8 secretion (Fluorokine MAP)” value [2] was 312 pg/mL and the “TNF alpha secretion (Fluorokine MAP)” value [2] was 105 pg/mL.

In the case of `C[C@]12C=CC(=O)C=C1CC[C@@H]1[C@@H]2[C@@H](O)C[C@@]2(C)[C@H]1CC[C@]2(O)C(=O)CO` [Prednisolone], the “IL1α mRNA, factor of variation with respect to the non-stressed control” value [1] is reported as 62, the “IL1β mRNA, factor of variation with respect to the non-stressed control” value [1] is reported as 75 and the “IL6 mRNA, factor of variation with respect to the non-stressed control” value [1] is reported as 81. For the same compound, the “IL7 mRNA, factor of variation with respect to the non-stressed control” value [1] was 102, the “IL8 mRNA, factor of variation with respect to the non-stressed control” value [1] was 105 and the “IL10 mRNA, factor of variation with respect to the non-stressed control” value [1] was 152. For the same compound, the “IL11 mRNA, factor of variation with respect to the non-stressed control” value [1] was 101, the “IL12 mRNA, factor of variation with respect to the non-stressed control” value [1] was 67 and the “IL15 mRNA, factor of variation with respect to the non-stressed control” value [1] was 99. The “IL-1R AcP mRNA, factor of variation with respect to the non-stressed control” value [1] was 95, the “IL-1RI mRNA, factor of variation with respect to the non-stressed control” value [1] was 83 and the “IL-1RII mRNA, factor of variation with respect to the non-stressed control” value [1] was 88. For the same compound, the “IL-1ra mRNA, factor of variation with respect to the non-stressed control” value [1] was 112, the “PLA2 mRNA, factor of variation with respect to the non-stressed control” value [1] was 93 and the “TNFα mRNA, factor of variation with respect to the non-stressed control” value [1] was 67.

For Quercitine Caprylate [Flavenger ®], the “limiting the UVB-induced increase in RNAs of collagen type I, type III and elastin” value ([3]; 1 and 3%) was “enables limiting the effects of the UVB stress induced by restoring, in a dose-dependent manner, the synthesis of these molecules”, the “Collagen I mRNA, ratio R = Sgene/Sactin” value [3, 4] was 0.94 and the “Collagen III mRNA, ratio R = Sgene/Sactin” value [3, 4] was 1.37. The “Elastin mRNA, ratio R = Sgene/Sactin” value [3, 4] was 4.87, the “Collagen I mRNA, ratio R = Sgene/Sactin” value [3, 5] was 0.92 and the “Collagen III mRNA, ratio R = Sgene/Sactin” value [3, 5] was 1.26. The “Elastin mRNA, ratio R = Sgene/Sactin” value [3, 5] was 4.61, the “restoring cell viability and synthesis of pro-inflammatory interleukins after solar irradiation” value [2] was “have shown an effectiveness capable of tending to restoring the reference level for these two parameters” and the “IL1 beta secretion (Fluorokine MAP)” value [2] was 97 pg/mL. The “IL6 secretion (Fluorokine MAP)” value [2] was 426 pg/mL, the “IL8 secretion (Fluorokine MAP)” value [2] was 294 pg/mL and the “TNF alpha secretion (Fluorokine MAP)” value [2] was 89 pg/mL.
